From patent US9701709B2 (REATA PHARMACEUTICALS, INC., priority 2012, dated 2017)
Where two headings read alike, the source gives them in different places.

Columns and labels:
[1] = test system: C4-2B-Luc and DU145-Luc human prostate cancer tumors; assay: Pilot in vivo prostate tumor model with ionizing radiation (luciferase imaging); design: species or system mouse; details: 17.5 mg/kg i.p. plus 18 Gy; n=1
Experimental: The colors indicated by the arrows are indicative of intensity with the intensities being represented by red, yellow, green, and blue in order from highest to lowest intensity.
After the successful results of the in vitro assay, a pilot in vivo assay was carried out using LNCaP/C4-2B and DU145 human prostate cancer engineered to express firefly luciferase (hereafter referred to as C4-2B-Luc and DU145-Luc, respectively). Of note, both of these cell lines grow in an androgen-independent fashion. Cells were cultured in RPMI 1640 supplemented with 10% FBS. Cells were harvested using TrypLE Express (Invitrogen) and washed in PBS and counted. Cells were reconstituted in PBS to arrive at a final concentration of 3×10^6 cells per 30 μL (unless otherwise stated) and aliquoted in separate tubes. Growth factor-reduced Matrigel (BD Bioscience) was thawed overnight at +4° C. and transferred into the tubes in 30 μL aliquots. The cell/Matrigel solutions were transferred to the vivarium and mixed right before injection at a 1:1 ratio. Each mouse (n=1 per group for a total of three animals) received a single subcutaneous injection of the tumor cells. Tumors were pre-established for 4 weeks. […] Tumor progression was monitored weekly via live imaging. […] For standardization, minimal exposure time necessary to image control tumor was determined and all animals were imaged under these conditions. […]

[2] = test system: micronucleated polychromatic erythrocytes; assay: In vivo micronucleus study
[3] = test system: radiation-induced oral mucositis; assay: Radiation-induced oral mucositis in hamsters
[4] = test system: LNCaP prostate cancer cell line; assay: Cytotoxicity in combination with 5-fluorouracil in LNCaP; assay type: cell-based; details: RTA 408 0.125 to 0.5 μM
From the text: This evidence supports the concept that RTA 408 could act synergistically with cancer therapeutic agents and may be used in some embodiments to provide greater efficacy in treating cancer patients.

[5] = test system: NADPH levels in HCT-116 cells; assay: WST-1 absorbance as marker of NADPH in HCT-116; assay type: cell-based; details: HCT-116, 24 h
From the text: WST-1 absorbance is commonly used to assess cell viability by measuring glycolytic production of NAD(P)H by viable cells. Therefore, in situations where NADPH production increases in the absence of any effect on cell viability, WST-1 absorbance also increases (Berridge et al. Biochemica 4:14-19, 1996, which is incorporated herein by reference).

[6] = Plasma protein binding (ultracentrifugation), rat
[7] = Topical pharmacokinetics in rats; assay type: in vivo, rat; details: 0.01% to 3% suspension in sesame oil
From the text: The topical administration was formulated as a suspension in sesame oil.

[8] = test system: NF-κB in NIH3T3/NF-κB-luc cell line; assay: NF-κB luciferase reporter in NIH3T3/NF-κB-luc; assay type: cell-based; details: Mus musculus
From the text: (b) TNF-α-induced activation of an NF-κB luciferase reporter in the mouse NIH3T3 cell line.
NF-κB is a transcription factor that plays a central role in the regulation of many immune and inflammatory responses. […] The NIH3T3/NF-κB-luc cell line maintains a chromosomal integration of a Firefly luciferase reporter construct regulated by eight copies of the NF-κB response element. The effects of these compounds can be quantified by measuring the value of the NF-κB IC50.

[9] = Oral pharmacokinetics in monkeys; assay type: in vivo, monkey; details: oral suspension, 10 to 100 mg/kg
Experimental: Measurements were performed on TQD and QToF mass spectrometers (Waters).
Following oral administration of a suspension formulation at doses of 10 to 100 mg/kg, maximal concentrations were observed within 1 to 2 h in mice, and within 1 to 24 h in rats and monkeys.

## CC1(C)CC[C@]2(NC(=O)C(C)(F)F)CC[C@]3(C)[C@H](C(=O)C=C4[C@@]5(C)C=C(C#N)C(=O)C(C)(C)[C@@H]5CC[C@]43C)[C@@H]2C1 [RTA 408, N-((4aS,6aR,6bS,8aR,12aS,14aR,14bS)-11-cyano-2,2,6a,6b,9,9,12a-heptamethyl-10,14-dioxo-1,2,3,4,4a,5,6,6a,6b,7,8,8a,9,10,12a,14,14a,14b-octadecahydropicen-4a-yl)-2,2-difluoropropanamide]
[1]
  Tumor image (luciferase), RTA 408 plus ionizing radiation: no visible tumor on Day 21
[2]; 125 mg/kg, 24-h timepoint
  Change from Control (%): −8%
  Number of MPCE/1000 PCE (Mean +/− SD): 0.3 ± 0.27
  Number of MPCE/PCE Scored: 3/10000
  PCE/Total Erythrocytes (Mean +/− SD): 0.543 ± 0.03
[2]; 125 mg/kg, 48-h timepoint
  Change from Control (%): −14%
  Number of MPCE/1000 PCE (Mean +/− SD): 0.2 ± 0.27
  Number of MPCE/PCE Scored: 2/10000
  PCE/Total Erythrocytes (Mean +/− SD): 0.453 ± 0.03
[2]; 250 mg/kg, 24-h timepoint
  Change from Control (%): −12%
  Number of MPCE/1000 PCE (Mean +/− SD): 0.3 ± 0.27
  Number of MPCE/PCE Scored: 3/10000
  PCE/Total Erythrocytes (Mean +/− SD): 0.520 ± 0.06
[2]; 250 mg/kg, 48-h timepoint
  Change from Control (%): −26%
  Number of MPCE/1000 PCE (Mean +/− SD): 0.2 ± 0.27
  Number of MPCE/PCE Scored: 2/10000
  PCE/Total Erythrocytes (Mean +/− SD): 0.391 ± 0.02
[2]; 500 mg/kg, 24-h timepoint
  Change from Control (%): −28%
  Number of MPCE/1000 PCE (Mean +/− SD): 0.0 ± 0.00
  Number of MPCE/PCE Scored: 0/10000
  PCE/Total Erythrocytes (Mean +/− SD): 0.426 ± 0.07
[2]; 500 mg/kg, 48-h timepoint
  Change from Control (%): −36%
  Number of MPCE/1000 PCE (Mean +/− SD): 0.3 ± 0.45
  Number of MPCE/PCE Scored: 3/10000
  PCE/Total Erythrocytes (Mean +/− SD): 0.339 ± 0.05
[2]; 1000 mg/kg, 24-h timepoint
  Change from Control (%): −15%
  Number of MPCE/1000 PCE (Mean +/− SD): 0.2 ± 0.27
  Number of MPCE/PCE Scored: 2/10000
  PCE/Total Erythrocytes (Mean +/− SD): 0.498 ± 0.05
[2]; 1000 mg/kg, 48-h timepoint
  Change from Control (%): −35%
  Number of MPCE/1000 PCE (Mean +/− SD): 0.1 ± 0.22
  Number of MPCE/PCE Scored: 1/10000
  PCE/Total Erythrocytes (Mean +/− SD): 0.344 ± 0.04
[2]; 1500 mg/kg, 24-h timepoint
  Change from Control (%): −15%
  Number of MPCE/1000 PCE (Mean +/− SD): 0.4 ± 0.22
  Number of MPCE/PCE Scored: 4/10000
  PCE/Total Erythrocytes (Mean +/− SD): 0.499 ± 0.06
[2]; 1500 mg/kg, 48-h timepoint
  Change from Control (%): −39%
  Number of MPCE/1000 PCE (Mean +/− SD): 0.4 ± 0.42
  Number of MPCE/PCE Scored: 4/10000
  PCE/Total Erythrocytes (Mean +/− SD): 0.376 ± 0.05
[2]; 2000 mg/kg, 24-h timepoint
  Change from Control (%): −10%
  Number of MPCE/1000 PCE (Mean +/− SD): 0.2 ± 0.27
  Number of MPCE/PCE Scored: 2/10000
  PCE/Total Erythrocytes (Mean +/− SD): 0.531 ± 0.05
[2]; 2000 mg/kg, 48-h timepoint
  Change from Control (%): −32%
  Number of MPCE/1000 PCE (Mean +/− SD): 0.1 ± 0.22
  Number of MPCE/PCE Scored: 1/10000
  PCE/Total Erythrocytes (Mean +/− SD): 0.360 ± 0.03
[2]; 125-2000 mg/kg, 24-h and 48-h timepoints
  Genotoxicity in the In Vivo Micronucleus Study: 63415 is Negative for Genotoxicity in the In Vivo Micronucleus Study
[3]; 30 mg/kg and 100 mg/kg BID×20
  Reduction in ulceration: ≤ 36%
[3]; 100 mg/kg
  Euthanasia due to weight loss in excess of 20%: two out of eight hamsters in the 100 mg/kg dose group were euthanized on Day 2
[3]; 30 and 100 mg/kg twice daily
  Duration of ulcerative mucositis: significant reduction in the duration of ulcerative mucositis
[4]
  Cytotoxicity of 5-fluorouracil in combination: statistically significant increase in cytotoxicity when combined with RTA 408
[5]
  WST-1 absorbance (marker of NADPH): increased WST-1 absorbance in a dose-dependent manner
[6]
  fraction unbound: 0.05
[7]
  Plasma concentrations after topical administration: lower plasma concentrations relative to similar oral dosing
[8]; not viability normalized, read-out: NIH3T3/NF-κB IC50
  IC50: 1200 nM
[8]; viability normalized, read-out: NIH3T3/NF-κB IC50, normalized for viability
  IC50: 1400 nM
[9]
  Time of maximal concentrations: 1 to 24 h
